US20060258729A1, “Antibacterial pyrazole carboxylic acid hydrazides” (priority 2002, published 2006)

Legend:
[1] = system: E. faecium clinical isolate; assay: Inhibition of bacterial growth (MIC), Efcm; type: cell-based; conditions: 16 to 18 hours, 37° C.
Procedure: (§1) Each compound was assayed against a panel of a strain of Bacillus subtilis, of strains of antibiotic-resistant and sensitive Enterococcus and Staphylococcus species, and of a strain of the Gram-negative bacterium Escherichia coli. Compounds were dissolved in DMSO at 100× the desired highest concentration and added to one well of a 96-well microassay plate. Two-fold serial drug dilutions were made across the plate in DMSO to yield 11 concentrations (usually 80-0.078 μg/mL) plus an untreated control. Drugs were then transferred to fresh plates using 1.5 μL per well. Log phase cultures were diluted to yield a concentration of 1×10^5 colony forming units/mL in either LB or BHI medium and transferred to the plates containing drug for a final volume of 150 μL. Each well, including the DMSO controls, contained a final concentration of 1% DMSO. Plates were incubated with shaking at 37° C. for 16 to 18 hours. Cell growth was determined by measuring optical density (570 nm, 1 cm path length) in a microplate reader. MIC (minimum inhibitory concentration) is equivalent to the lowest concentration at which growth is not observed. The bacterial strains and MIC determinations have been well characterized and are described elsewhere (Tarantino et al., Antimicrob. Agents Chemother., 43: 1982-1987 (1999); Daly et al., Antimicrob. Agents Chemother., 44: 2217-2221 (2000)).

[2] = system: Enterococcus faecalis strain 29212; assay: Inhibition of bacterial growth (MIC), Efcl; type: cell-based; conditions: 16 to 18 hours, 37° C.
Procedure: as §1

E. coli pol IIIE = target: T1, E. coli pol IIIE (Escherichia coli, UniProt P10443); assay: DNA polymerase assay, E. coli pol IIIE; type: biochemical; conditions: 80 μg/mL (190-260 μM) final concentration; all four dNTPs
T1 construct: purchased Enzyco, Denver, Colo
T1 sequence (P10443 whole entry): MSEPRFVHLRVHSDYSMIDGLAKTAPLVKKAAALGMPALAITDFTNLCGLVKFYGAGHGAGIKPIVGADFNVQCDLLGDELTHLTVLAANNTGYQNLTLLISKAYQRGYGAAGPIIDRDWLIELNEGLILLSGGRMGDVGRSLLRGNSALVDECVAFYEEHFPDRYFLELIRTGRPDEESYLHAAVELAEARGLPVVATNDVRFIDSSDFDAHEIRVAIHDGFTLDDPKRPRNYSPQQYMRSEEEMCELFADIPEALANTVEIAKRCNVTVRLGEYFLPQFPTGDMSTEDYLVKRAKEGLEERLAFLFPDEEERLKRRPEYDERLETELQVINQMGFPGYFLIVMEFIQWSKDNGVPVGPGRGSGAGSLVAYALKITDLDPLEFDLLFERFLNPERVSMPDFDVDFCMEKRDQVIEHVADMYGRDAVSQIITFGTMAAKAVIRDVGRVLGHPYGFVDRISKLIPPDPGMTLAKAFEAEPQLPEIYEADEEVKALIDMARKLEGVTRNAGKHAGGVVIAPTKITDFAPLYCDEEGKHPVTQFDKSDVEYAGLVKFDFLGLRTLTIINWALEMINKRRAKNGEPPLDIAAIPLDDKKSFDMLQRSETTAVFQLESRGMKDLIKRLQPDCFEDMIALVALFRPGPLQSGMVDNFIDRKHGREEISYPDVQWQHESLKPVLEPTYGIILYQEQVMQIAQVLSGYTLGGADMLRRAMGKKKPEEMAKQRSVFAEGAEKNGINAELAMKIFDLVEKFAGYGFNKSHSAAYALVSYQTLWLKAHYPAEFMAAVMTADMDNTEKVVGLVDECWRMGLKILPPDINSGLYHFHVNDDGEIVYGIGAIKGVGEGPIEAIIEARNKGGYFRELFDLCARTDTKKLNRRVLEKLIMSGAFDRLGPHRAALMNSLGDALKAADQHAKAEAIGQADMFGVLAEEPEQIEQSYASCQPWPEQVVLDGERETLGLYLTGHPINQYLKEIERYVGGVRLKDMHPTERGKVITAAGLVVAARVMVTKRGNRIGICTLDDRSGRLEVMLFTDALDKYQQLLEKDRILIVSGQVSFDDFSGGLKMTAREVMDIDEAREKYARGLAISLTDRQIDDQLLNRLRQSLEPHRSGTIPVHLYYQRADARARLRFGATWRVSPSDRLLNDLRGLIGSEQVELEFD
Procedure: (§2) Recombinant, purified pol IIIC and pol IIIE from Bacillus subtilis were obtained using known methods (Hammond et al., Gene 98: 29-36 (1991), regarding pol IIIC; Barnes et al., J. Bacteriol. 184, 3834-3838 (2002), regarding pol IIIE). Recombinant, purified pol IIIE from Escherichia coli was obtained from a commercial source (Enzyco, Denver, Colo.). The enzyme assays were performed in 96-well plate format using the same assay mix for all three enzymes. Each 25 μL assay contained 30 mM Tris, pH 7.5, 10 mM magnesium acetate, 4 mM dithiothreitol, 20% glycerol, with 10 μM dATP, dCTP, dGTP and dTTP (3H-labelled at 1.44 Ci/mmole) and 0.4 mg/mL activated calf thymus DNA as substrates. Dilutions of compounds were added to the plate in 1% DMSO (1 μL/well). Assays were initiated by the addition of 0.025 to 0.06 units of enzyme (1 unit is the amount required to incorporate 250 pmoles of [^3H] dTMP in a standard assay), incubated for 10 min at 30° C. and terminated by the addition of 200 μL of cold 10% trichloroacetic acid, 10 mM sodium pyrophosphate. Precipitated labeled DNA was collected on glass fiber filter plates that had been pre-wet with ice cold 1 M HCl, 100 mM sodium pyrophosphate. The plates were washed with the HCl solution followed by ice cold 90% ethanol and then dried and counted in a liquid scintillation counter. The calculated IC50 is the concentration needed to inhibit 50% of the DNA polymerase activity in the presence of all four dNTP substrates. In addition, percent inhibition values are calculated as the percent reduction in the activity of a DMSO (diluent) control.

[3] = system: Escherichia coli strain J53; assay: Inhibition of bacterial growth (MIC), Ec; type: cell-based; conditions: 16 to 18 hours, 37° C.
Procedure: as §1

[4] = system: Bacillus subtilis strain BD54; assay: Inhibition of bacterial growth (MIC), Bs; type: cell-based; conditions: 16 to 18 hours, 37° C.
Procedure: as §1

[5] = system: methicillin-resistant S. aureus strain 1094; assay: Inhibition of bacterial growth (MIC), MRSA; type: cell-based, Staphylococcus aureus; conditions: 16 to 18 hours, 37° C.
Procedure: as §1

[6] = system: vancomycin-resistant Enterococcus strain B42762; assay: Inhibition of bacterial growth (MIC), VRE; type: cell-based; conditions: 16 to 18 hours, 37° C.
Procedure: as §1

[7] = system: Staphylococcus aureus strain IP 8; assay: Inhibition of bacterial growth (MIC), Sa; type: cell-based; conditions: 16 to 18 hours, 37° C.
Procedure: as §1

S. aureus Smith strain = assay: Inhibition of bacterial growth (MIC), Sm; type: cell-based, Staphylococcus aureus; conditions: 16 to 18 hours, 37° C.
Procedure: as §1

B. subtilis pol IIIC = target: T2, B. subtilis pol IIIC (Bacillus subtilis, UniProt P13267); assay: DNA polymerase assay, B. subtilis pol IIIC; type: biochemical; conditions: 80 μg/mL (190-260 μM) final concentration; all four dNTPs
T2 construct: made in house
T2 sequence (P13267 whole entry): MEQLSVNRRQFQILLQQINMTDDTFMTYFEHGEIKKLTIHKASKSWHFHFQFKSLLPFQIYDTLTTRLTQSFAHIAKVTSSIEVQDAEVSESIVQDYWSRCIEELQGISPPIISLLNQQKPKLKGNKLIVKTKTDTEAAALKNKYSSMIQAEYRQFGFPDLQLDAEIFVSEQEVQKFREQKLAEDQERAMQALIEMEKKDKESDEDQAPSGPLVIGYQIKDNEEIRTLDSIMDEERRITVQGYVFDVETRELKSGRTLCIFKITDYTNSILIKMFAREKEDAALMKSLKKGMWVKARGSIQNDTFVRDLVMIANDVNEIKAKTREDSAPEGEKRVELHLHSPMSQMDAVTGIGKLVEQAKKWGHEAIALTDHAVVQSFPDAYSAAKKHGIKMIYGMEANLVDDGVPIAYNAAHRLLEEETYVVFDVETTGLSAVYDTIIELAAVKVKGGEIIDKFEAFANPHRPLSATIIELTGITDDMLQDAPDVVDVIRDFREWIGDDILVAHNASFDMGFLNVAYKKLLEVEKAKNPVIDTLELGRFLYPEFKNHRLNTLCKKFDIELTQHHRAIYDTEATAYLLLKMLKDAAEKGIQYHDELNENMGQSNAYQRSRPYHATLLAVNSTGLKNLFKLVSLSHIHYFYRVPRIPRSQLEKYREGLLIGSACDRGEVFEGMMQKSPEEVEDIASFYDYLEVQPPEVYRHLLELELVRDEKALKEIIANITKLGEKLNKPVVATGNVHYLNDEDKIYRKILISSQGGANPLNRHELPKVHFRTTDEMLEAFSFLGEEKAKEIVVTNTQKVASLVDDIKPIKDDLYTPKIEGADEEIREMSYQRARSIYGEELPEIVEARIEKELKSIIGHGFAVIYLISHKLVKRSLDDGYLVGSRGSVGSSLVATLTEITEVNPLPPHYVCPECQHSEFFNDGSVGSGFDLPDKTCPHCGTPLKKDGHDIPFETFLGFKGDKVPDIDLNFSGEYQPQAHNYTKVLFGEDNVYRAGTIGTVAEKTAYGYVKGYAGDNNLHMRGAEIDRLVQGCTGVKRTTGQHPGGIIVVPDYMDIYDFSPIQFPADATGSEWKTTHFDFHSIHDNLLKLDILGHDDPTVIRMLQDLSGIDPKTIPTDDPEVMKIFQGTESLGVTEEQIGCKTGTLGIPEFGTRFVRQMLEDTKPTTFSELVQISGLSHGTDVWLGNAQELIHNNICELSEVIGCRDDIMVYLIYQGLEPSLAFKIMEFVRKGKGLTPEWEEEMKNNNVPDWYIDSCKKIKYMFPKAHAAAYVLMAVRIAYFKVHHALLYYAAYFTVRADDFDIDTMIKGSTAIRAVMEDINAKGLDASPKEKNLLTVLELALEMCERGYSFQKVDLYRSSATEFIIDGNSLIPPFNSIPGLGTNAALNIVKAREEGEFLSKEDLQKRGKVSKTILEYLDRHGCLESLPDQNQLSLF
Procedure: as §2, with “Each 25 μL assay contained 30 mM Tris, pH 7.5, 10 mM magnesium acetate, 4 mM dithiothreitol, 20% glycerol, with 10 μM dATP, dCTP, dGTP and dTTP (3H-labelled at 1.44 Ci/mmole) and 0.4 mg/mL activated calf thymus DNA as substrates.” left out, “The calculated IC50 is the concentration needed to inhibit 50% of the DNA polymerase activity in the presence of all four dNTP substrates.” left out

B. subtilis pol IIIE = target: T3, B. subtilis pol IIIE (Bacillus subtilis, UniProt O34623); assay: DNA polymerase assay, B. subtilis pol IIIE; type: biochemical; conditions: 80 μg/mL (190-260 μM) final concentration; all four dNTPs
T3 construct: made in house
T3 sequence (O34623 whole entry): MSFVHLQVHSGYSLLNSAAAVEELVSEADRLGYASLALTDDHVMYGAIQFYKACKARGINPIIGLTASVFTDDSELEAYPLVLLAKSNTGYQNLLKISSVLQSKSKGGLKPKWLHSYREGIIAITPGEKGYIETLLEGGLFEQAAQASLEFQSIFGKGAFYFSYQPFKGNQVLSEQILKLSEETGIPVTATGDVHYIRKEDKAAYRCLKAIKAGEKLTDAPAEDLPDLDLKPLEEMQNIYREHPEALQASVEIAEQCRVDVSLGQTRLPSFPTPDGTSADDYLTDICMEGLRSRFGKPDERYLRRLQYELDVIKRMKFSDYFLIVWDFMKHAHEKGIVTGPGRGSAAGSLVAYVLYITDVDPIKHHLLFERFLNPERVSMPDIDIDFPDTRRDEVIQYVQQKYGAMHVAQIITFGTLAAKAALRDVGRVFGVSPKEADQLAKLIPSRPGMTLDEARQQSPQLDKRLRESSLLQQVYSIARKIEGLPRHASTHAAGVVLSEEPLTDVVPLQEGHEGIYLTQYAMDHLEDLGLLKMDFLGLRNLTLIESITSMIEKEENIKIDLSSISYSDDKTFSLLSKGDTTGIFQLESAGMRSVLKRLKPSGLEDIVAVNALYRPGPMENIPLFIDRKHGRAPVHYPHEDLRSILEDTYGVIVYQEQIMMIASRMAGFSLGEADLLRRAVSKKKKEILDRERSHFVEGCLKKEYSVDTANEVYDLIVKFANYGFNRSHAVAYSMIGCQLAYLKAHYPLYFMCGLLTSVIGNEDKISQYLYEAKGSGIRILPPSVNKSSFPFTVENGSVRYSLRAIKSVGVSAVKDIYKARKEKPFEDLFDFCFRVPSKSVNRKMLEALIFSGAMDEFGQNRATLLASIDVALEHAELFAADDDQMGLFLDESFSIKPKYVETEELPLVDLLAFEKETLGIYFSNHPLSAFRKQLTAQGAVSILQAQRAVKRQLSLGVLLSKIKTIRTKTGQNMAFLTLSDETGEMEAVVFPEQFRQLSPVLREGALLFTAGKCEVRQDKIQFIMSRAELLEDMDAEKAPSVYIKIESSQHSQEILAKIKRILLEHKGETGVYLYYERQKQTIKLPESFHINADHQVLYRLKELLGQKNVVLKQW
Procedure: as §2

Row | SMILES | Minimum Inhibitory Concentration for Bacterial Growth, Efcm [1] | Minimum Inhibitory Concentration for Bacterial Growth, Efcl [2] | Percent Enzymatic Inhibition E. coli pol IIIE (E. coli pol IIIE) | Minimum Inhibitory Concentration for Bacterial Growth, Ec [3] | Minimum Inhibitory Concentration for Bacterial Growth, Bs [4] | Minimum Inhibitory Concentration for Bacterial Growth, MRSA [5] | Minimum Inhibitory Concentration for Bacterial Growth, VRE [6] | Minimum Inhibitory Concentration for Bacterial Growth, Sa [7] | Minimum Inhibitory Concentration for Bacterial Growth, Sm (S. aureus Smith strain) | Percent Enzymatic Inhibition B. subtilis pol IIIC (B. subtilis pol IIIC) | Percent Enzymatic Inhibition B. subtilis pol IIIE (B. subtilis pol IIIE)
1 | O=C(NN=Cc1cc(Br)ccc1O)c1cc(-c2ccccc2)n[nH]1 [Compound 6] | 10 µg/mL | 8 µg/mL | 9.0% | >80 µg/mL | >80 µg/mL | 40 µg/mL | 8 µg/mL | 10 µg/mL | >80 µg/mL | 11.3% | 7.7%
2 | COc1cccc(C=NNC(=O)c2cc(-c3ccc(C)cc3)n[nH]2)c1O [Compound 8] | >80 µg/mL | >80 µg/mL | – | >80 µg/mL | >80 µg/mL | >80 µg/mL | >80 µg/mL | >80 µg/mL | >80 µg/mL | 19.7% | –
3 | O=C(NN=Cc1ccccc1O)c1cc(-c2ccccc2)n[nH]1 [Compound 9] | >80 µg/mL | >80 µg/mL | – | >80 µg/mL | >80 µg/mL | >80 µg/mL | >80 µg/mL | >80 µg/mL | >80 µg/mL | – | –
4 | COc1cccc(-c2cc(C(=O)NN=Cc3cccc(O)c3)[nH]n2)c1 [Compound 10] | >80 µg/mL | >80 µg/mL | Inactive | >80 µg/mL | >80 µg/mL | >80 µg/mL | >80 µg/mL | >80 µg/mL | >80 µg/mL | Inactive | 9.6%
5 | Cc1ccc(C=NNC(=O)c2cc(-c3ccccc3)n[nH]2)cc1 [Compound 11] | >80 µg/mL | >80 µg/mL | Inactive | >80 µg/mL | >80 µg/mL | >80 µg/mL | >80 µg/mL | >80 µg/mL | >80 µg/mL | 1.3% | 16.7%
6 | CCCCc1cc(C=NNC(=O)c2cc(-c3ccccc3)n[nH]2)cc(CCCC)c1O [Compound 12] | >80 µg/mL | >80 µg/mL | 7.2% | >80 µg/mL | >80 µg/mL | >80 µg/mL | >80 µg/mL | >80 µg/mL | >80 µg/mL | Inactive | 7.6%
7 | COc1ccc(-c2cc(C(=O)NN=Cc3ccccc3)[nH]n2)cc1 [Compound 13] | >80 µg/mL | >80 µg/mL | 3.4% | >80 µg/mL | >80 µg/mL | >80 µg/mL | >80 µg/mL | >80 µg/mL | >80 µg/mL | 2.9% | Inactive
8 | CCN1C(=O)C(=NNC(=O)c2cc(-c3ccccc3)n[nH]2)c2ccccc21 [Compound 20] | – | – | Inactive | – | – | – | – | – | – | 0.2% | 0.5%
9 | CCN1C(=O)C(=NNC(=O)c2cc(-c3cccc(-c4ccccc4)c3)n[nH]2)c2ccccc21 [Compound 21] | >80 µg/mL | >80 µg/mL | – | >80 µg/mL | >80 µg/mL | >80 µg/mL | >80 µg/mL | >80 µg/mL | >80 µg/mL | – | –
